# In patent publication US20220277805A1, “GENETIC MUTATIONAL ANALYSIS” (BioSkryb Genomics, Inc., priority 2019, published 2022):
# “Also recorded” adds a separate entry of the source.
# Columns and labels:
# [1] = test system: cord blood CD34+ cells; experiment: direct measurement of environmental mutagenicity (DMEM), single-cell PTA sequencing; type: cell-based, human; settings: for enrichment of cytosine variants in DNase I hypersensitivity sites: compared to DH sites of CD34+ cells, Roadmap Epigenomics Project, FIG. 12D, 12E
# Source text: PTA was used to conduct a novel mutagenicity assay that provides a framework for performing high-resolution, genome wide human toxicogenomics studies. Previous studies such as the Ames test, relies on bacterial genetics to make measurements that are assumed to be representative of human cells while only providing limited information on the mutation number and patterns induced in each exposed cell. To overcome these limitations, a human mutagenesis system “direct measurement of environmental mutagenicity (DMEM)” was developed, wherein single human cells was exposed to an environmental compound, isolated as single cells, and subjected to single-cell sequencing to identify the new mutations induced in each cell.
# Umbilical cord blood cells that express the stem/progenitor marker CD34 were exposed to increasing concentrations of the direct mutagen N-ethyl-N-nitrosourea (ENU).
# ENU (CAS 759-73-9) and D-mannitol (CAS 69-65-8) were put into solution at their maximal solubility. Fresh anticoagulant-treated umbilical cord blood (CB) was obtained from St. Louis Cord Blood Bank. CB was diluted 1:2 with PBS and mononuclear cells (MNCs) were isolated by density gradient centrifugation on Ficoll-Paque Plus according to manufacturer's instructions. CB MNCs expressing CD34 were then immunomagnetically selected using the human CD34 microbead kit and magnetic cell sorting (MACS) system as per the manufacturer. Cell count and viability were assessed using the Luna FL cell counter. CB CD34+ cells were seeded at a density of 2.5×10^4 cells/mL in StemSpan SFEM supplemented with 1× CD34+ Expansion supplement, 100 units/mL of penicillin, and 100 ug/mL of streptomycin where they expanded for 96 hours before proceeding to mutagen exposure.
# Expanded cord blood CD34+ cells were cultured in StemSpan SFEM supplemented with 1× CD34+ Expansion Supplement, 100 units/mL of penicillin, and 100 ug/mL of streptomycin. The cells were exposed to ENU at concentrations of 8.54, 85.4, and 854 uM, D-mannitol at 1152.8, and 11528 uM, or 0.9% sodium chloride (vehicle control) for 40 hours. Single-cell suspensions from drug-treated cells and vehicle control samples were harvested and stained for viability as described above. Single cell sorts were carried out as described above. PTA was performed and libraries were prepared using a simplified and improved protocol as per the general methods of the methods described herein, and Example 2.
# Data acquired from cells in the DMEM experiments were trimmed using Trimmomatic, aligned to GRCh38 using BWA, and further processed using GATK 4.0.1 best practices without deviation from the recommended parameters. Genotyping was performed using HaplotypeCaller where joint genotypes were again filtered using standard parameters. […] The trinucleotide context of each SNV was determined by extracting the surrounding bases from the reference genome using bedtools. Mutation counts and context were visualized using ggplot2 and heatmap2 in R.
# To determine whether mutations were enriched in DNase I hypersensitivity sites (DHS) in CD34+ cells, the proportion of SNVs in each sample that overlap with DHS sites from 10 CD34+ primary cell datasets produced by the Roadmap Epigenomics Project were calculated. DHS sites were extended by 2 nucleosomes, or 340 bases in either direction. Each DHS dataset was paired with a single cell sample where we determined the proportion of the human genome with at least 10× coverage in that cell which overlapped with a DHS, which was compared to the proportion of SNVs that were found within the covered DHS sites.
# [2] = test system: mice; settings: limited sequencing of target genes; cited from earlier work
# [3] = test system: clone harboring an activating KRAS mutation; experiment: leukemia cells in culture exposed to standard ALL chemotherapy drugs, bulk sequencing of clones; type: cell-based; settings: FIG. 7
# Source text: Given such a massive population genetic diversity, it has been hypothesized that there are clones that are more resistant to treatment within a given patient. To test that hypothesis, the sample is placed in culture and the leukemia cells are exposed to increasing concentrations of standard ALL chemotherapy drugs. […] This approach also employed bulk sequencing of the treated samples. The use of single-cell DNA sequencing in some instances allows a determination of the diversity and clonotypes of the expanding populations.
compound,measurement,setting,value
"CCN(N=O)C(N)=O [ENU, N-ethyl-N-nitrosourea]",most common mutations (base changes),[1]; FIG. 12B,"T to A (A to T), T to C (A to G), and C to T (G to A)"
same,enrichment in variant locations at DH sites,"[1]; all ENU induced mutations, FIG. 12E",No significant enrichment in variant locations at DH sites
same,enrichment of cytosine variants in DNase I hypersensitivity sites,[1],no enrichment of cytosine variants in DNase I hypersensitivity sites was observed; also recorded: no enrichment of variants restricted to cytosines was observed in DH sites
same,enrichment of cytosine variants in DNase I hypersensitivity sites,[1]; listed as N-ethyl-N-nitrosourea,No significant enrichment of cytosine variants was observed
same,mutation number of each cell,"[1]; increasing ENU concentrations 8.54, 85.4, 854 uM, 40 hours, FIG. 12A",dose-dependent increase in mutation number of each cell
same,enrichment of variants in genomic locations with specific annotations,"[1]; relative to proportion of the genome each annotation comprises, FIG. 12F",No specific enrichment
same,preferred base changes,[2],"T to A (A to T), T to C (A to G), and C to T (G to A)"
COc1cccc2c1C(=O)c1c(O)c3c(c(O)c1C2=O)C[C@@](O)(C(C)=O)C[C@@H]3O[C@H]1C[C@H](N)[C@H](O)[C@H](C)O1 [daunorubicin],response of the clone harboring an activating KRAS mutation,[3]; in culture with drug,more sensitive; also recorded: killed
asparaginase,response of the clone harboring an activating KRAS mutation,[3]; lowest dose,continued to expand
C[C@]12C=CC(=O)C=C1CC[C@@H]1[C@@H]2[C@@H](O)C[C@@]2(C)[C@H]1CC[C@]2(O)C(=O)CO [prednisolone],response of the clone harboring an activating KRAS mutation,[3]; in culture with drug,more sensitive; also recorded: killed
